Substitutions are numbered along the chain they refer to. Names may count otherwise. “Also recorded” adds a separate entry of the source. Read-outs that look alike come from different tables or passages of the source.
Columns and labels:
human MTHFR [1] = target: T1, human MTHFR (Homo sapiens, UniProt P42898); experiment: In vivo yeast complementation growth assay: MTHFR alleles in fol3 met13 haploid yeast, growth without methionine with titrated folinic acid; format: cell-based; details: folinic acid above 50 ug/ml; fol3 met13 cells
T1 construct: expressed in transfected cells; host or cells: Saccharomyces cerevisiae fol3Δ::KanMX met13Δ::KanMX (S288c background), GAL1 promoter

[2] = test system: fol3Δ::KanMX MET13 haploid yeast; format: cell-based, S. cerevisiae; details: for Effect of folinic acid supplementation on growth: fol3Δ MET13 cells
[3] = upper level of intake considered safe for adults; cited from earlier work
human MTHFR [4] = experiment: Thermolability of MTHFR variants (heat treatment at 55° C. before enzyme assay); format: biochemical
Description: MTHFR enzyme activity assay. The assay, which measures the reverse reaction of that catalyzed by MTHFR under physiological conditions, was as described (Shan et al, 1999, supra) with the following modifications: Yeast extracts were created by bead lysis of 40 CD595 cell equivalents (fol3Δ met13Δ cells supplemented with folinic acid and methionine as above) in 350 ul of Lysis Buffer (100 mM Sucrose, 50 mM KHPO4 (pH 6.3), protease inhibitor cocktail). Extracts were clarified by a brief microcentrifugation, and 10-200 ug of extract used to determine the linear range of activity. Radiolabeled substrate (5-[^14C]MeTHF) was from GE Healthcare Life Sciences. For heat treatment, the reaction mixes without 5-[^14C]MeTHF were heated to 55° C. for the indicated times at which point 5-[^14C]MeTHF was added back and the reaction proceeded.
In addition to measuring specific activity, variants were tested for thermolability (a measure of enzyme stability) by heat treatment at 55° C. for various times.

human MTHFR [5] = experiment: In vivo yeast complementation growth assay: MTHFR alleles in fol3 met13 haploid yeast, growth without methionine with titrated folinic acid; format: cell-based; details: for Functional impact / folate-responsiveness of MTHFR allele (growth in the absence of methionine): over a range of folinic acid concentrations, relative to the major allele; for Interaction of substitutions in compound (double-substitution) alleles with A222V: growth at 50 and 25 ug/ml folinic acid
human CBS = experiment: Yeast complementation assay for CBS as a function of pyridoxine (cys4, sno/snz sextuple-delete strain); format: cell-based; details: qualitative growth on solid media

T1 sequence (P42898 whole entry): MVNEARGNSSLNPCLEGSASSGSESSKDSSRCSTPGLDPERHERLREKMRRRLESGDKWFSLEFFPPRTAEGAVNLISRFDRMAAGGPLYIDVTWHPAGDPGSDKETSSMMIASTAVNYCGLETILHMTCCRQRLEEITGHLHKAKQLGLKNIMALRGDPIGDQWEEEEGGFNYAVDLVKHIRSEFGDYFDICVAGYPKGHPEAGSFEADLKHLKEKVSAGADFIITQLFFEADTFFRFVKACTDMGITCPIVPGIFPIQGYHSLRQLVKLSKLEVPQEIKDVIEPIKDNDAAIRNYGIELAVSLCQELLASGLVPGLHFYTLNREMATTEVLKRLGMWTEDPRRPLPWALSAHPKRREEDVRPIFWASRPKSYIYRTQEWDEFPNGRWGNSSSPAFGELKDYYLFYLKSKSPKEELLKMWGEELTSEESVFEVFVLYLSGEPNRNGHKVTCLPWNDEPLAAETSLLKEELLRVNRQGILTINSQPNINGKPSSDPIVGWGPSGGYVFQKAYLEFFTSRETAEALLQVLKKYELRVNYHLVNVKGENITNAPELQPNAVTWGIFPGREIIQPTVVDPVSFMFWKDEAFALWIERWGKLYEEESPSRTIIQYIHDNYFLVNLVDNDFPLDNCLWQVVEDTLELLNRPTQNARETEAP

5-formyl-tetrahydrofolate [folinic acid]
Effect of folinic acid supplementation on growth of cells expressing the major human MTHFR allele (human MTHFR [1]): did not confer a significant growth advantage
Folinic acid supplementation compared to growth of FOL3 cells ([2]; fol3Δ cells vs FOL3 cells): did not completely compensate for lack of endogenous folate biosynthesis
Effect of folinic acid supplementation on growth ([2]; folinic acid above 50 ug/ml): did not confer any significant growth advantage
Effect of folinic acid supplementation on growth ([2]; folinic acid below 50 ug/ml): growth clearly correlated with available folinic acid in the medium

C[N+](C)(C)CCO [Choline]
UL (Upper Limit) [3]: 3500 mg

O=C(O)c1cccnc1 [Niacin]
UL (Upper Limit) [3]: 35 mg

O=C1O[C@H]([C@@H](O)CO)C(O)=C1O [Vitamin C]
UL (Upper Limit) [3]: 2000 mg

A222V: common functionally impaired human MTHFR variant, catalytic domain substitution A222V
Thermolability (human MTHFR [4]): lost nearly all activity
Functional impact / folate-responsiveness of MTHFR allele (growth in the absence of methionine) (human MTHFR [5]): folate-remedial behavior

D223N: novel low-frequency human MTHFR variant, catalytic domain substitution D223N
Thermolability (human MTHFR [4]): increased thermolability
Functional impact / folate-responsiveness of MTHFR allele (growth in the absence of methionine) (human MTHFR [5]): folate-remedial activity similar to A222V (though less severely impaired); also recorded: folate-remedial behavior

D291N: low-frequency human MTHFR variant, catalytic domain substitution D291N
Interaction of substitutions in compound (double-substitution) alleles with A222V (human MTHFR [5]): synergized when combined with A222V
Functional impact / folate-responsiveness of MTHFR allele (growth in the absence of methionine) (human MTHFR [5]): folate-remedial behavior

H213R: low-frequency human MTHFR variant, catalytic domain substitution H213R
Functional impact / folate-responsiveness of MTHFR allele (growth in the absence of methionine) (human MTHFR [5]): benign

M110I A222V: doubly-substituted compound human MTHFR allele
Interaction of substitutions in compound (double-substitution) alleles with A222V (human MTHFR [5]): functioned more poorly than the sum of the individual alleles

M110I: low-frequency human MTHFR variant, catalytic domain substitution M110I
MTHFR function (growth) relative to the major allele (human MTHFR [5]; 50 ug/ml folinic acid): nearly indistinguishable from the major allele
Interaction of substitutions in compound (double-substitution) alleles with A222V (human MTHFR [5]): synergized when combined with A222V
Functional impact / folate-responsiveness of MTHFR allele (growth in the absence of methionine) (human MTHFR [5]): folate-remedial behavior
Functional impact / folate-responsiveness of MTHFR allele (growth in the absence of methionine) (human MTHFR [5]; listed as MilOl): folate-remedial activity similar to A222V (though less severely impaired)

R134C: low-frequency human MTHFR variant, catalytic domain substitution R134C
Functional impact / folate-responsiveness of MTHFR allele (growth in the absence of methionine) (human MTHFR [5]): severely impaired at all folate concentrations; also recorded: responsive, but not a remedial allele; also recorded: nearly loss-of-function

R519C: low-frequency human MTHFR variant, regulatory domain substitution R519C
Functional impact / folate-responsiveness of MTHFR allele (growth in the absence of methionine) (human MTHFR [5]): benign

Vitamin B-6
UL (Upper Limit) [3]: 100 mg

major allele: most common human MTHFR allele in the population, expressed in yeast
Functional impact / folate-responsiveness of MTHFR allele (growth in the absence of methionine) (human MTHFR [5]): did not completely compensate for loss of Met13p

B1: 1278T: homocystinuria allele of human CBS, vitamin B6-responsive (protein, UniProt P35520 1-551, looked up, variant I278T)
Cystathionine beta-synthase: MPSETPQAEVGPTGCPHRSGPHSAKGSLEKGSPEDKEAKEPLWIRPDAPSRCTWQLGRPASESPHHHTAPAKSPKILPDILKKIGDTPMVRINKIGKKFGLKCELLAKCEFFNAGGSVKDRISLRMIEDAERDGTLKPGDTIIEPTSGNTGIGLALAAAVRGYRCIIVMPEKMSSEKVDVLRALGAEIVRTPTNARFDSPESHVGVAWRLKNEIPNSHILDQYRNASNPLAHYDTTADEILQQCDGKLDMLVASVGTGGTITGIARKLKEKCPGCRITGVDPEGSILAEPEELNQTEQTTYEVEGIGYDFIPTVLDRTVVDKWFKSNDEEAFTFARMLIAQEGLLCGGSAGSTVAVAVKAAQELQEGQRCVVILPDSVRNYMTKFLSDRWMLQKGFLKEEDLTEKKPWWWHLRVQELGLSAPLTVLPTITCGHTIEILREKGFDQAPVVDEAGVILGMVTLGNMLSSLLAGKVQPSDQVGKVIYKQFKQIRLTDTLGRLSHILEMDHFALVVHEQIQYHSTGKSSQRQMVFGVVTAIDLLNFVAAQERDQK
Rescue of cys4 yeast growth defect as a function of pyridoxine supplementation (human CBS): more sensitive than the wild-type enzyme to limiting B6 levels

B2: R266K: homocystinuria allele of human CBS, vitamin B6-responsive (protein, UniProt P35520 1-551, looked up, variant R266K)
Cystathionine beta-synthase: B1 Cystathionine beta-synthase with R266K, T278I
Rescue of cys4 yeast growth defect as a function of pyridoxine supplementation (human CBS): more sensitive than the wild-type enzyme to limiting B6 levels

From patent US20120277180A1, “Cofactors and Methods for Use for Individuals” (VITAPATH GENETICS, INC, priority 2009, published 2012)
